In article PMC4718634, “Murine GPRC6A Mediates Cellular Responses to L-Amino Acids, but Not Osteocalcin Variants” (PLoS ONE, 2016):
Entries after “also recorded” stand apart in the source; their conditions may differ. Read-outs that look alike come from different tables or passages of the source.

How the values were obtained:
[1] = tested on: GLUTag cells; conditions: endogenous; ref [17] (supplement list); cited from earlier work
Source text: (§1) Supplement pone.0146846.s004.docx, table 1 | column: Functional assay

[2] = tested on: GPRC6A; conditions: bind in the 7TM domain; ref [3], [4]; cited from earlier work
Source text: GPRC6A is a class C G protein-coupled receptor (GPCR) that has been cloned from human, mouse and rat. The receptor was initially deorphanised by fusion of its large N-terminal domain to the heptahelical and C-terminal region of the related goldfish 5.24 receptor [1]. […] These ligands are thought to bind in the N-terminal domain of the receptor [2] in a manner analogous to the binding of L-glutamate to metabotropic glutamate receptors. Small molecules, ...

[3] = tested on: mC6A; conditions: cited from earlier work
Source text: as §1

[4] = tested on: PC-3 cells; conditions: endogenous; ref [18] (supplement list); cited from earlier work
Source text: as §1

[5] = tested on: GLUTag cells; assay: GLP-1 release from GLUTag cells; format: cell-based, murine; conditions: NPS-2143 10 μM, 30 min pre-treatment; ^P < 0.05 vs L-ornithine alone; Fig 6A
Description: Intestinal L-cell model GLUTag cells were seeded in 24-well plates coated with Matrigel and incubated for 6 days in DMEM with 10% FBS, 100 U/ml penicillin, 100 μg/ml streptomycin at 37°C in 5% CO2 and grown for 4–5 days. Where indicated, cells were washed (1 or 2 x 1h) with Krebs-HEPES buffer (20 mM HEPES, 118 mM NaCl, 4.7 mM KCl, 1.2 mM MgSO4, 5 mM NaHCO3, 1.2 mM KH2PO4, 2.5 mM CaCl2, 5.5 mM glucose, 0.2% BSA (w/v), pH 7.2) containing vildagliptin (300 μM) prior to addition of test compounds in the same buffer. After 2 h incubation at 37°C in 5% CO2, the supernatant was recovered and centrifuged at 500 rpm for 5 min. Where used, NPS-2143 pre-treatment was for 30 min.
GLP-1 content in the cell supernatant was measured by ELISA (EGLP-35K, Millipore), according to manufacturer’s instructions after overnight incubation of 15 μl supernatant in 100 μl Krebs-HEPES buffer at 4°C. After 5 x washes, 200 μl of detection conjugate was added and incubated for 2 h at RT. After 3 x washes the reaction was developed with 200 μl of diluted substrate (1:200) for 20 min and terminated by addition of 50 μl stop solution. After 5 min, fluorescence was then measured using 355 nm excitation and 460 nm emission, transforming the obtained signal into pmol GLP-1/well/ml and corrected for GLUTag cell protein content as determined using the method of Bradford (1976).
(§2) Concentration-response data were analysed using a three or four parameter logistic function (Motulsky & Christopoulos, 2004) to generate estimates of agonist potency (LogEC50). Data for all HEK293 assays represent the mean ± SEM of at least three independent experiments (except cell impedance, n = 2). For GLP-1 release, the data represent mean ± SEM of three to five independent experiments (except for OCN, wash; n = 2). For insulin release assays, data represent the mean ± SEM of three independent experiments (except for islet studies; n = 2). Insulin release data were normalised to the response to vehicle in either low or high [glucose]. Statistical analysis for GLP-1 release data were performed by one-way ANOVA, followed by Sidak’s multiple comparisons test (treating wash / no wash datasets separately). Statistical analyses for insulin release data were performed by two-way ANOVA (with [glucose] and drug treatment as group variables), followed by Sidak’s multiple comparisons test. Where only high [glucose] groups were evaluated, statistical analysis was by one-way ANOVA followed by Sidak’s multiple comparisons test.

[6] = biological target: T1, mGPRC6A (mouse GPRC6A) (Mus musculus, UniProt Q8K4Z6); assay: Inositol phosphate (IP-One HTRF) accumulation, FlpIn-TREx-HEK293-mGPRC6A cells; format: cell-based; conditions: NPS-2143 30 μM; Fig 1C
T1 sequence (Q8K4Z6 21-928): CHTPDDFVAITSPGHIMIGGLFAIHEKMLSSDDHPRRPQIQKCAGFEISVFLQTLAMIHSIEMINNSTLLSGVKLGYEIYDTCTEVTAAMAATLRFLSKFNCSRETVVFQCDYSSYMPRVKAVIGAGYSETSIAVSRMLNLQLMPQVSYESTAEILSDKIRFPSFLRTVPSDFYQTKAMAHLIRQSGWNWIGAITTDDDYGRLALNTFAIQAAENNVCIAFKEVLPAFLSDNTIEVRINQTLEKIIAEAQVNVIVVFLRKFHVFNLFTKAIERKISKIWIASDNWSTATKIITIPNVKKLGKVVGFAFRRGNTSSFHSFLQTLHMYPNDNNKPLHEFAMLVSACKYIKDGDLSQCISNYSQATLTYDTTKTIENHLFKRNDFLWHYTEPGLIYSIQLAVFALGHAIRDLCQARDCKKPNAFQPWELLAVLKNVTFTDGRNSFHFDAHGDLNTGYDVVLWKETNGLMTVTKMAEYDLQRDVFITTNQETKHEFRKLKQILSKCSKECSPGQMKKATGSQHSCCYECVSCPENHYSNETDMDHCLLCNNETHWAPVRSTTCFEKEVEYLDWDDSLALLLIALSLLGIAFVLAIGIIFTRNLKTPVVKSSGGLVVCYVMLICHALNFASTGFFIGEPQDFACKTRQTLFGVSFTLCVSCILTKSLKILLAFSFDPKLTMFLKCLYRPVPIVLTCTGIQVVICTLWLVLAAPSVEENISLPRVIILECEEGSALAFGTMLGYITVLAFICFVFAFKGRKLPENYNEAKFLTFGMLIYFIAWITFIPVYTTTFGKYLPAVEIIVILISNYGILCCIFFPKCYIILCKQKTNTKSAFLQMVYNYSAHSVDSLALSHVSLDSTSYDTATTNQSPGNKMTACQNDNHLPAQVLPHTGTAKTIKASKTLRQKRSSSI
Description: pcDNA 5/FRT/TO constructs were isogenically integrated into a FlpIn-TREx-HEK293 cell line (Life Technologies). FlpIn-TREx-HEK293-mGPRC6A and FlpIn-TREx-HEK293-hGPRC6A cells were then selected using 600 μg/ml hygromycin and 5 μg/ml blasticidin and grown in culture medium consisting of Dulbecco’s Modified Eagle Medium (DMEM), supplemented with 10% (v/v) foetal bovine serum (FBS) at 37°C in 5% CO2 and were sub-cultured in a 1:3 ratio every 3–4 days. Cells were cultured overnight in the presence of 1 μg/ml tetracycline to induce GPRC6A expression. […] 48 h after transfection, cells were selected using 3 μg/ml puromycin and grown as above.
Inositol phosphate (IPX) accumulation experiments were performed using the IP-One HTRF® assay kit (Cisbio, France). Briefly, 24h after transfection with G proteins (as above), 10^5 cells were seeded per well in PDL-coated, 96-well white plates and incubated overnight. Cells were then washed 2 x 2h at 37°C in HBSS buffer (pH 7.2) containing 20 mM HEPES, 3.5 mM NaHCO3, 1 mM CaCl2 and 0.1% (w/v) BSA. Test compounds were then prepared in the kit stimulation buffer containing 2 mM CaCl2; cells were then incubated with 70 μl of drugs for 30 min, after which 15 μl of both IP1-D2 and Ab-Cryp were added to the cells, followed by a 1 h incubation at RT. Plates were read using an Envision plate reader (Perkin Elmer), using an HTRF protocol. Results were calculated from the 665nm / 620nm HTRF ratio (Ratio = A665nm/A620nm x 10^4) and expressed as a percentage of the maximal response obtained.
as §2

[7] = tested on: MIN6 cells; assay: Insulin release from MIN6 cells; format: cell-based, murine; conditions: NPS-2143 10 μM; ^^P < 0.01 vs L-ornithine alone; Fig 6B
Description: MIN6 or βTC-6 cells were seeded in 24-well plates at 170,000 cells per well in DMEM (containing 4.5g/L glucose, 10 mM HEPES, 100 U/ml penicillin, 100 μg/ml streptomycin and 15% de-complemented FBS) and incubated at 37°C / 5% CO2 for 72 h. Cells were then washed with 500 μl PBS and incubated in 500 μl deprivation media (DMEM with zero glucose, 10 mM HEPES, 1 mM Na-pyruvate, 100 U/ml penicillin, 100 μg/ml streptomycin, 15% de-complemented FBS) for 2 h at 37°C. Media was aspirated and after washing with 500 μl PBS, cells were treated with 250 μl of Krebs buffer (250 mM NaCl, 5.9 mM KCl, 1.2 mM MgCl2, 1.3 mM CaCl2, 25 mM HEPES, 0.1% BSA (w/v), and 2 mM or 16.7 mM glucose; pH 7.4) in the presence or absence of test compound. After incubation for 2 h at 37°C, the assay was terminated by placing the plates on ice and supernatants were transferred to a 96-well plate in preparation for insulin ELISA (Alpco) following manufacturer’s instructions. The cell monolayer was washed twice with 500 μl of PBS and then lysed using 250 μl of 1 N NaOH prior to protein measurement by the method of Bradford (1976).
as §2

SMILES | antagonism, Ca^2+i [1] | antagonism, GLP-1 secretion [1] | modulation of GPRC6A [2] | IP-One HTRF response ([3]; ref [13] (supplement list)) | cAMP response ([3]; ref [13] (supplement list)) | pERK response ([3]; ref [13] (supplement list)) | cAMP response ([3]; ref [18] (supplement list)) | pERK1/2 response ([3]; ref [18] (supplement list)) | pERK1/2 response [4] | reversal of L-ornithine-stimulated GLP-1 release [5] | inhibition of L-ornithine-stimulated inositol phosphate accumulation [6] | reversal of L-ornithine-stimulated insulin secretion [7]
C[C@@H](NCc1cc2ccccc2[nH]1)c1cccc2ccccc12 [calindol] | antagonist | antagonist | negative allosteric modulators | – | – | – | – | – | – | – | – | –
C[C@]12CC[C@H]3[C@@H](CCC4=CC(=O)CC[C@@]43C)[C@@H]1CC[C@@H]2O [Testosterone] | – | – | – | No response | no response | No specific response | cAMP – response to Testosterone, L-Arg pERK1/2 – response to Testosterone | cAMP – response to Testosterone, L-Arg pERK1/2 – response to Testosterone | pERK1/2 – response to Testosterone, L-Arg | – | – | –
CC(C)(Cc1ccc2ccccc2c1)NC[C@@H](O)COc1cccc(Cl)c1C#N [NPS-2143] | – | – | negative allosteric modulators | – | – | – | – | – | – | fully reversed; also recorded: significantly reversed; also recorded: NPS-2143-sensitive | inositol phosphate accumulation in response to L-ornithine was sensitive to application of the GPRC6A antagonist, NPS-2143; also recorded: can be inhibited with the antagonist | fully reversed
